One series relates to Salmonella typhimurium. The protocol:
(§1) Growth inhibition assays were performed using the peptides of Example 1 and the Gram positive microorganisms Micrococcus luteus and Bacillus megaterium, and the Gram negative microorganisms, Escherichia coli D22, Agrobacterium tumefaciens, and Salmonella typhimurium. Anti-bacterial assays were performed in sterilized 96-well plates (Nunc F96 microtiter plates) with a final volume of 100 μl as described in Bulet (1996), cited above. Briefly, 90 μl of a suspension of a midlogarithmic phase bacterial culture at an initial 600 nm UV absorbence of 0.001 in Luria-Bertani rich nutrient medium was added to 10 μl of serially diluted peptides in sterilized water. The final peptide concentrations ranged between 0.15 and 80 μM. The plates were incubated at 30° C. for 24 hours with gentle shaking, and the growth inhibition was measured by recording the increase of the UV absorbence at 600 nm on an SLT Labinstruments 400 ATC microplate reader. The experiments were conducted over a 7-month period.

A further series relates to Micrococcus luteus. The protocol:
as §1

The test system of series [1] is Agrobacterium tumefaciens. Conditions: 24 h. The protocol: as §1
A further series concerns Bacillus megaterium. The protocol:
as §1

Another series relates to COS cells. The series is described as follows: Direct killing of immortalized COS cells. It counts as cell-based. An excerpt:
In another toxicity assay, COS cell survival was studied for pyrrhocoricin and cecropin B (Bachem Biosciences, King of Prussia, Pa.) as the positive control.

Another series deals with sheep erythrocytes. The series is described as follows: Hemolytic activity, release of hemoglobin. Conditions: for Absorbence at 405 nm: 40 μM peptide, one hour, 39° C. The protocol: To determine whether native and modified pyrrhocoricin peptides were toxic to mammalian cells, several peptides from Example 1 above, a positive control, and a negative control were examined for hemolytic activity. Hemolytic activity was assayed with sheep erythrocytes suspended in Alsever's solution (BioWhittaker, Walkersville, Md.), and diluted with Dulbecco's phosphate-buffered saline, pH 7.2. Thirty μL of a 1% suspension of the red blood cells was incubated with agitation at 39° C. with 30 μL of 40 to 256 μM of each of the following peptides dissolved in phosphate buffered saline for one hour and centrifuged at 1000 g for five minutes. Fifty μL of the supernatant was collected and the release of hemoglobin was detected by measuring the ultraviolet absorbences of triplicate samples of the 40 μM or 256 μM test peptides and the control peptides at 405 nm.

For series [2] the following is noted: human sera, preliminary metabolism studies.
Description: Owing to the fact that the use of diluted serum increases peptide recovery as well as retards the reaction kinetics to a manageable rate, the experiments were conducted using 25% aqueous sera.
For serum stability studies, 10 μl of an aqueous peptide stock solution containing about 0.8 mg/ml peptide was added to 200 μl 25% aqueous pooled mouse or human serum (Sigma, St. Louis, Mo.), according to the process described in M. F. Powell et al, Pharmacol Res, 10: 1268–1273 (1993). The peptide-serum mixture was thermostated at 37° C. After 0 minutes, 45 minutes, 2 hours and 4 hours, three samples of each peptide were taken and precipitated by the addition of 40 μl 15% aqueous trichloroacetic acid. The samples were stored at 4° C. for 20 minutes and centrifuged. The peptides and some remaining serum proteins were recovered in the supernatant after the trichloroacetic acid precipitation. The supernatants were immediately frozen on dry-ice and 220 μl of each were analyzed on RP-HPLC. A mouse serum and two different batches of the same SIGMA catalog number of human sera (human 1, approximately 1 year old, and human 2, approximately 1 month old) were also used.
The lyophilized samples were redissolved in 0.1 aqueous TFA and submitted for matrix assisted laser desorption/ionization (MALDI-MS).
The missing residues are indicated (e.g—C2 means that the C-terminal two residues are cleaved off). […] In Table 4, the relative amounts of the degradation products are estimated based on the MALDI-MS peak heights. 0=not detected; 1=very weak (below 5000), 2=weak (5–10000), 3=medium (10–15000), 4=strong (15000-uncleaved molecular ion at 25–30000), 5=very strong (above uncleaved molecular ion).
Setting [3] is: read-out: IC50 in μM against Bacillus megaterium, 30° C., 24 hours, for Peptide 22 original assay (a).

Where two headings read alike, the source gives them in different places. Non-standard residues stand in square brackets, D forms with d. Residues, ends and D or L forms follow the SMILES beside them. *: point of attachment. 5FAM = O=C1OC2(c3ccc(O)cc3Oc3cc(O)ccc32)c2ccc(C(=O)*)cc21; Biotin = O=C1N[C@H]2[C@H](CS[C@H]2CCCCC(=O)*)N1; Ac6c = NC1(C(=O)O)CCCCC1; X2 = O=C1CCCC1N* A value given as a limit tells only on which side of the number the result lay.

`CC[C@H](C)[C@H](NC(=O)[C@@H]1CCCN1C(=O)[C@H](CCCNC(=N)N)NC(=O)[C@@H]1CCCN1C(=O)[C@@H]1CCCN1C(=O)[C@@H](NC(=O)[C@@H]1CCCN1C(=O)[C@H](CCCNC(=N)N)NC(=O)[C@@H]1CCCN1C(=O)[C@H](CC(C)C)NC(=O)[C@H](Cc1ccc(O)cc1)NC(=O)[C@H](CO)NC(=O)CNC(=O)[C@H](CCCCN)NC(=O)[C@H](CC(=O)O)NC(=O)C1(N)CCCCC1)[C@@H](C)O)C(=O)N[C@@H](Cc1ccc(O)cc1)C(=O)N[C@@H](CC(N)=O)C(=O)N[C@@H](CCCNC(=N)N)C(=O)N[C@@H](CC(N)=O)C(N)=O` [Peptide 6] (H-[Ac6c]DKGSYLPRPTPPRPIYNRN-NH2; N-terminus and C-terminus assumed): the IC50 worked out at 2.5 µM with Salmonella typhimurium (murium, 24 h); 5 µM in the series with Micrococcus luteus (24 h); 1.25 µM in series [1]; 10 µM in the series with Bacillus megaterium (Bacillus, 24 h).

As for “Ac-KVDKGSYLPRPTPPRPIYNRN-NH2 (C-terminus assumed) [Peptide 5]”, the 50% inhibitory concentration (IC50) in the series with Salmonella typhimurium (murium, 24 h) is 40 µM; with Micrococcus luteus (24 h), 40 µM; in series [1] it was 5 µM; in the series with Bacillus megaterium (setting [3]), over 80 µM.

As for `CC[C@H](C)[C@H](NC(=O)[C@@H]1CCCN1C(=O)[C@H](CCCNC(=N)N)NC(=O)[C@@H]1CCCN1C(=O)[C@@H]1CCCN1C(=O)[C@@H](NC(=O)[C@@H]1CCCN1C(=O)[C@H](CCCNC(=N)N)NC(=O)[C@@H]1CCCN1C(=O)[C@H](CC(C)C)NC(=O)[C@H](Cc1ccc(O)cc1)NC(=O)[C@H](CO)NC(=O)CNC(=O)[C@H](CCCCN)NC(=O)[C@H](CC(=O)O)NC(=O)[C@@H](NC(=O)[C@H](CCCCN)NC(=O)CCCC[C@@H]1SC[C@@H]2NC(=O)N[C@@H]21)C(C)C)[C@@H](C)O)C(=O)N[C@@H](Cc1ccc(O)cc1)C(=O)N[C@@H](CC(N)=O)C(=O)N[C@@H](CCCNC(=N)N)C(=O)N[C@@H](CC(N)=O)C(N)=O` [Peptide 18] (Biotin-KVDKGSYLPRPTPPRPIYNRN-NH2), the IC50 in the series on Bacillus megaterium (setting [3]) is over 80 µM.

Cecropin [reference compound]: the “Cell Count after Treatment” value was 6 ± 6 with COS cells (5 μM peptide), 6.7 ± 0.3 in the series on COS cells (10 μM peptide) and 7.3 ± 3.7 with COS cells (50 μM peptide). The “effect on COS cell count (in words)” value in the series on COS cells (at as low as 5 μM concentration) is listed as “reduced the cell count”.

Regarding `CC[C@H](C)[C@H](NC(=O)[C@@H]1CCCN1C(=O)[C@H](CCCNC(=N)N)NC(=O)[C@@H]1CCCN1C(=O)[C@@H]1CCCN1C(=O)[C@@H](NC(=O)[C@@H]1CCCN1C(=O)[C@H](CCCNC(=N)N)NC(=O)[C@@H]1CCCN1C(=O)[C@H](CC(C)C)NC(=O)[C@H](Cc1ccc(O)cc1)NC(=O)[C@H](CO)NC(=O)CNC(=O)[C@H](CCCCN)NC(=O)[C@H](CC(=O)O)NC(=O)[C@@H](NC(=O)[C@H](CCCCN)NC(C)=O)C(C)C)[C@@H](C)O)C(=O)N[C@@H](Cc1ccc(O)cc1)C(=O)N[C@@H](CC(N)=O)C(=O)N[C@@H](CCCNC(=N)N)C(=O)NC1CCCC1=O` (stereo partly shown) [Peptide 8] (Ac-KVDKGSYLPRPTPPRPIYNR-X2; N-terminus and C-terminus assumed), the half-inhibitory concentration (IC50) in the series with Salmonella typhimurium (murium, 24 h) worked out at 2.5 µM; with Micrococcus luteus (24 h), 5 µM; in series [1] it was 1.25 µM; in the series on Bacillus megaterium (Bacillus, 24 h), 20 µM.

Turning to `CC[C@H](C)[C@H](NC(=O)CN)C(=O)NCC(=O)N[C@@H](C)C(=O)N[C@H](C(=O)N[C@@H](CC(C)C)C(=O)N[C@@H](CCCCN)C(=O)N[C@H](C(=O)N[C@@H](CC(C)C)C(=O)N[C@H](C(=O)N[C@H](C(=O)NCC(=O)N[C@@H](CC(C)C)C(=O)N1CCC[C@H]1C(=O)N[C@@H](C)C(=O)N[C@@H](CC(C)C)C(=O)N[C@H](C(=O)N[C@@H](CO)C(=O)N[C@@H](Cc1c[nH]c2ccccc12)C(=O)N[C@H](C(=O)N[C@@H](CCCCN)C(=O)N[C@@H](CCCNC(=N)N)C(=O)N[C@@H](CCCCN)C(=O)N[C@@H](CCCNC(=N)N)C(=O)N[C@@H](CCC(N)=O)C(=O)N[C@@H](CCC(N)=O)C(N)=O)[C@@H](C)CC)[C@@H](C)CC)[C@@H](C)O)[C@@H](C)O)C(C)C)C(C)C` [Melittin, reference compound], in the series with sheep erythrocytes, the “lowest concentration that lysed sheep erythrocytes” value was found to be 5 µM and the “Absorbence at 405 nm” value is 2.99 ± 0.06. The “lysis of erythrocytes (in words)” value with sheep erythrocytes (final concentration of 40 μM) is given as “lysed the erythrocytes”.

In the case of “Ac-RVDKGSYLPRPTPPRPIYNRN-NH2 (C-terminus assumed) [Peptide 4]”, the half-maximal inhibitory concentration (IC50) was 2.5 µM in the series on Salmonella typhimurium (murium, 24 h); 5 µM in the series with Micrococcus luteus (24 h); 2.5 µM in series [1]; over 80 µM in the series on Bacillus megaterium (setting [3]).

Consider `CC[C@H](C)[C@H](NC(=O)[C@@H]1CCCN1C(=O)[C@H](CCCNC(=N)N)NC(=O)[C@@H]1CCCN1C(=O)[C@@H]1CCCN1C(=O)[C@@H](NC(=O)[C@@H]1CCCN1C(=O)[C@H](CCCNC(=N)N)NC(=O)[C@@H]1CCCN1C(=O)[C@H](CC(C)C)NC(=O)[C@H](Cc1ccc(O)cc1)NC(=O)[C@H](CO)NC(=O)CNC(=O)[C@H](CCCCN)NC(=O)[C@H](CC(=O)O)NC(=O)[C@H](N)C(C)C)[C@@H](C)O)C(=O)N[C@@H](Cc1ccc(O)cc1)C(=O)N[C@@H](CC(N)=O)C(=O)N[C@@H](CCCNC(=N)N)C(=O)N[C@H](CC(N)=O)C(N)=O` [Peptide 12] (H-[dV]DKGSYLPRPTPPRPIYNR[dN]-NH2; N-terminus and C-terminus assumed), for which the IC50 in the series on Salmonella typhimurium (murium, 24 h) is 5 µM; in the series on Micrococcus luteus (24 h), 10 µM; in series [1], 2.5 µM; with Bacillus megaterium (setting [3]), over 80 µM.

As to “Ac-KVDKVDKGSYLPRPTPPRPIYNRN-NH2 (C-terminus assumed) [Peptide 3]”, the 50% inhibitory concentration (IC50) is 5 µM in the series with Salmonella typhimurium (murium, 24 h); 80 µM in the series with Micrococcus luteus (24 h); 10 µM in series [1]; over 80 µM in the series with Bacillus megaterium (setting [3]).

Consider “Ac-KVDKGSYLPRPTPPRPIYNRD-NH2 (C-terminus assumed) [Peptide 20]”, for which the IC50 was over 80 µM in the series with Salmonella typhimurium (read-out: IC50 in μM against Salmonella typhimurium, 30° C., 24 hours, for Peptide 22 original assay (a)); over 80 µM in the series on Micrococcus luteus (read-out: IC50 in μM against Micrococcus luteus, 30° C., 24 hours, for Peptide 22 original assay (a)); 40 µM in series [1]; over 80 µM in the series on Bacillus megaterium (setting [3]).

`CC[C@H](C)[C@H](NC(=O)[C@@H]1CCCN1C(=O)[C@H](CCCNC(=N)N)NC(=O)[C@@H]1CCCN1C(=O)[C@@H]1CCCN1C(=O)[C@@H](NC(=O)[C@@H]1CCCN1C(=O)[C@H](CCCNC(=N)N)NC(=O)[C@@H]1CCCN1C(=O)[C@H](CC(C)C)NC(=O)[C@H](Cc1ccc(O)cc1)NC(=O)[C@H](CO)NC(=O)CNC(=O)[C@H](CCCCN)NC(=O)[C@H](CC(=O)O)NC(=O)[C@@H](NC(=O)[C@H](CCCCN)NC(=O)c1ccc2c(c1)C(=O)OC21c2ccc(O)cc2Oc2cc(O)ccc21)C(C)C)[C@@H](C)O)C(=O)N[C@@H](Cc1ccc(O)cc1)C(=O)N[C@@H](CC(N)=O)C(=O)N[C@@H](CCCNC(=N)N)C(=O)N[C@@H](CC(N)=O)C(N)=O` [Peptide 19] (5FAM-KVDKGSYLPRPTPPRPIYNRN-NH2): in the series on Bacillus megaterium (setting [3]), the half-inhibitory concentration (IC50) was over 80 µM.

For the molecule `CC[C@H](C)[C@H](NC(=O)[C@H](CCCNC(=N)N)NC(=O)[C@@H](NC(=O)[C@H](Cc1ccc(O)cc1)NC(=O)[C@@H](NC(=O)[C@H](C)N)C(C)C)[C@@H](C)O)C(=O)N[C@@H](CCSC)C(=O)N[C@@H](CCSC)C(=O)N[C@@H](CC(N)=O)C(=O)NCC(=O)NCC(=O)N[C@@H](CCCNC(=N)N)C(=O)N[C@@H](CC(C)C)C(=O)N[C@@H](CCCCN)C(=O)N[C@@H](CCCNC(=N)N)C(N)=O` [Peptide 31D, reference compound], in the series with sheep erythrocytes, the “Absorbence at 405 nm” value is 0.160 ± 0.021.

Take `CC[C@H](C)[C@@H]1NC(=O)[C@@H]2CCCN2C(=O)[C@H](CCCNC(=N)N)NC(=O)[C@@H]2CCCN2C(=O)[C@@H]2CCCN2C(=O)[C@H]([C@@H](C)O)NC(=O)[C@@H]2CCCN2C(=O)[C@H](CCCNC(=N)N)NC(=O)[C@@H]2CCCN2C(=O)[C@H](CC(C)C)NC(=O)[C@H](Cc2ccc(O)cc2)NC(=O)[C@H](CO)NC(=O)CNC(=O)[C@H](CCCCN)NC(=O)[C@H](CC(=O)O)NC(=O)[C@H](C(C)C)NC(=O)[C@H](CCCCN)NC(=O)[C@H](CC(C)C)NC(=O)[C@@H]2CCCN2C(=O)[C@H](CCCNC(=N)N)NC(=O)[C@@H]2CCCN2C(=O)[C@H]([C@@H](C)O)NC(=O)[C@@H]2CCCN2C(=O)[C@@H]2CCCN2C(=O)[C@H](CCCNC(=N)N)NC(=O)[C@H](CC(N)=O)NC(=O)[C@H](CCCNC(=N)N)NC(=O)[C@H](CC(N)=O)NC(=O)[C@H](Cc2ccc(O)cc2)NC1=O` [Peptide 17] (cyclo(KVDKGSYLPRPTPPRPIYNRNRPPTPRPL)): the IC50 with Salmonella typhimurium (murium, 24 h) turned out to be 5 µM; in the series on Micrococcus luteus (24 h) it was 0.6 µM; in series [1], 2.5 µM; in the series on Bacillus megaterium (Bacillus, 24 h) it was 2.5 µM. In addition, the endopeptidase cleavage site result in series [2] is “between Asn 18 and Arg19”.

One may read the IC50 as the concentration needed to halve the response being measured.

Values taken from US7015309B1 (The Wistar Institute of Anatomy and Biology, priority 1999, dated 2006).
